Measured values taken from the CheMixHub ionic liquid set.

Test: xn = mol fraction of the nth substance listed

CCCCCCCCn1cc[n+](C)c1.F[B-](F)(F)F + CC1COC(=O)O1
Conditions	viscosity [mPa·s]
303.15 K, 99.7 kPa, x2 = 0.4086	38.9

CCCC[N+]1(C)CCCC1.O=S(=O)([N-]S(=O)(=O)C(F)(F)F)C(F)(F)F + CC1COC(=O)O1
Conditions	electrical conductivity [S/m]	viscosity [mPa·s]
253.15 K, 101 kPa, x2 = 0.11	0.026	–
253.15 K, 101 kPa, x2 = 0.21	0.04	–
253.15 K, 101 kPa, x2 = 0.47	0.108	–
253.15 K, 101 kPa, x2 = 0.63	0.183	–
253.15 K, 101 kPa, x2 = 0.79	0.27	–
253.15 K, 101 kPa, x2 = 0.89	0.283	–
258.15 K, 101 kPa, x2 = 0.16	0.052	–
258.15 K, 101 kPa, x2 = 0.26	0.073	–
258.15 K, 101 kPa, x2 = 0.58	0.199	–
263.15 K, 101 kPa, x2 = 0.05	0.053	–
263.15 K, 101 kPa, x2 = 0.37	0.14	–
263.15 K, 101 kPa, x2 = 0.53	0.225	–
268.15 K, 101 kPa, x2 = 0.68	0.418	–
273.15 K, 101 kPa, x2 = 0	0.109	–
273.15 K, 101 kPa, x2 = 0.26	0.195	–
273.15 K, 101 kPa, x2 = 0.42	0.281	–
273.15 K, 101 kPa, x2 = 0.74	0.535	–
278.15 K, 101 kPa, x2 = 0.26	0.253	–
278.15 K, 101 kPa, x2 = 0.95	0.504	–
283.15 K, 101 kPa, x2 = 0.05	0.212	–
283.15 K, 101 kPa, x2 = 0.16	0.257	–
283.15 K, 101 kPa, x2 = 0.37	0.382	–
283.15 K, 101 kPa, x2 = 0.58	0.557	–
283.15 K, 101 kPa, x2 = 0.68	0.654	–
283.15 K, 101 kPa, x2 = 0.89	0.698	–
283.15 K, 101 kPa, x2 = 0.95	0.566	–
283.15 K, 101 kPa, x2 = 0.97	0.458	–
288.15 K, 101 kPa, x2 = 0.26	0.384	–
288.15 K, 101 kPa, x2 = 0.47	0.547	–
288.15 K, 101 kPa, x2 = 0.74	0.787	–
288.15 K, 101 kPa, x2 = 0.79	0.817	–
293.15 K, 100 kPa, x2 = 0.8	0.93	7.8
293.15 K, 101 kPa, x2 = 0	0.303	86.1
293.15 K, 101 kPa, x2 = 0.53	0.689	21.23
293.15 K, 101 kPa, x2 = 0.79	0.91	7.77
298.15 K, 101 kPa, x2 = 0.32	0.581	28.28
298.15 K, 101 kPa, x2 = 0.37	–	25.45
298.15 K, 101 kPa, x2 = 0.42	0.678	22.81
298.15 K, 101 kPa, x2 = 0.63	0.892	12.82
303.15 K, 101 kPa, x2 = 0.21	0.574	29.14
303.15 K, 101 kPa, x2 = 0.42	0.771	19
303.15 K, 101 kPa, x2 = 0.63	1.001	10.87
303.15 K, 101 kPa, x2 = 0.74	1.091	7.36
303.15 K, 101 kPa, x2 = 0.84	1.099	4.68
308.15 K, 101 kPa, x2 = 0.37	0.816	17.76
313.15 K, 101 kPa, x2 = 0.21	0.75	20.27
313.15 K, 101 kPa, x2 = 0.32	0.858	16.62
313.15 K, 101 kPa, x2 = 0.47	1.036	12.28
313.15 K, 101 kPa, x2 = 0.79	1.3	4.64
313.15 K, 101 kPa, x2 = 0.84	1.271	3.75
313.15 K, 101 kPa, x2 = 0.97	0.721	–
318.15 K, 101 kPa, x2 = 0	–	29.72
318.15 K, 101 kPa, x2 = 0.05	–	25.14
318.15 K, 101 kPa, x2 = 0.47	–	10.64
318.15 K, 101 kPa, x2 = 0.89	–	2.77

100 kPa, frequency 0.003 MHz
Conditions	electrical conductivity [S/m]
297.1 K, x1 = 0.8	0.396
299.8 K, x1 = 0.4	0.804
299.9 K, x1 = 0.8	0.413
310.9 K, x1 = 0.8	0.527
313.5 K, x1 = 0.4	0.931
313.7 K, x1 = 0.2	1.15
313.7 K, x1 = 0.8	0.552
316.2 K, x1 = 0.2	1.17
319.3 K, x1 = 0.6	0.727
322.3 K, x1 = 0.9	0.559
327.6 K, x1 = 0.6	0.788
330.3 K, x1 = 0.2	1.26
330.6 K, x1 = 0.9	0.636
338.9 K, x1 = 0.2	1.31
338.9 K, x1 = 0.8	0.768
341.4 K, x1 = 0.8	0.788
341.6 K, x1 = 0.6	0.886
346.8 K, x1 = 0.4	1.18
349.7 K, x1 = 0.4	1.21
